Test results reported in PubChem BioAssay AID1645862 (Buhrlage Lab, Dana-Farber Cancer Institute and Novartis …, 2021).
Active and inactive are the calls of the source. No rule for the calls is given here. Bridge positions count the residues as written; N and C are the ends. Square brackets hold non-standard residues; d marks the D form. Peptide text beside a SMILES is read from it. * marks the point of attachment. ξ: configuration not given here. d(aIle) = CC[C@H](C)[C@@H](N)C(=O)O; d(aThr) = C[C@@H](O)[C@@H](N)C(=O)O; X1 = CCCCCCCCCCCC(O)CC(=O)*; ξL = CC(C)CC(N)C(=O)O

Target: Ubiquitin carboxyl-terminal hydrolase 8 (Homo sapiens) (UniProt P40818)
Assay: Ubiquitin-specific protease 8 inhibitors, concentration-effect, biochemical, validation of initial actives (AID 1645862);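 also: potency reflects inhibition of USP8 cleavage of a ubiquitin rhodamine substrate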
Settings: recombinant USP8 deubiquitinase activity assay

Chain of Ubiquitin carboxyl-terminal hydrolase 8 (Homo sapiens) (P40818 whole entry, looked up): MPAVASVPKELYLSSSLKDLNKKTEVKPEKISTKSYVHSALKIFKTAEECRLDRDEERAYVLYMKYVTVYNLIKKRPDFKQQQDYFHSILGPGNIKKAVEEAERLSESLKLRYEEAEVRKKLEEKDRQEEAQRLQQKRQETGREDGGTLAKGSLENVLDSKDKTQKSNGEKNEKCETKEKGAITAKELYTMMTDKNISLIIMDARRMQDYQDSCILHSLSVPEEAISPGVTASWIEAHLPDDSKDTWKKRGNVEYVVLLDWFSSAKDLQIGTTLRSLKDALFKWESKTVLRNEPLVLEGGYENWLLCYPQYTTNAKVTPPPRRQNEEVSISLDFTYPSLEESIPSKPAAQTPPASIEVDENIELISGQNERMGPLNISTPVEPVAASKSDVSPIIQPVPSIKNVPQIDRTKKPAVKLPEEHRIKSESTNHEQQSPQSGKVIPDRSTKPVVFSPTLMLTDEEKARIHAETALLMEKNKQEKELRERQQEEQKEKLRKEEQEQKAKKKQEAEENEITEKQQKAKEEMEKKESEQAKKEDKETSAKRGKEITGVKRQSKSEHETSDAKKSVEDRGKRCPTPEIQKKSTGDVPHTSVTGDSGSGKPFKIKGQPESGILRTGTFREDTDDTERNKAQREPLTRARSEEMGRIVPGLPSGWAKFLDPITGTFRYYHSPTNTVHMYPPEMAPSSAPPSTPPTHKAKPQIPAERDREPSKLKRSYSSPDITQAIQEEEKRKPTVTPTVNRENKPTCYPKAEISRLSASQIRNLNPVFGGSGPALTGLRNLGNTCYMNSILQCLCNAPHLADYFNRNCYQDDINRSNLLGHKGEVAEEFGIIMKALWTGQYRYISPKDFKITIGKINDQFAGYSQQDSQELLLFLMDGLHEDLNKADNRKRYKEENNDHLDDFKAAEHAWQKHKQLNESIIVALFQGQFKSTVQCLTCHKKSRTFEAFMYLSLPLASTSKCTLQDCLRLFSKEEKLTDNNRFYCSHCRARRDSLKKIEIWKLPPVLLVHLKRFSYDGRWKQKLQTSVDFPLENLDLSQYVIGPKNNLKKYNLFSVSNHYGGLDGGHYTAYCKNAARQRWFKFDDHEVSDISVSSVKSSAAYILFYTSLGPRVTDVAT

Row | SMILES | IC50
1 | CCCCCCCCCCCC(O)CC(=O)N[C@@H](CC(C)C)C(=O)N[C@H](CCC(=O)O)C(=O)N[C@H]1C(=O)N[C@H]([C@@H](C)CC)C(=O)NC(CC(C)C)C(=O)N[C@H](CO)C(=O)N[C@@H](CC(C)C)C(=O)N[C@@H](CC(C)C)C(=O)N[C@H](CO)C(=O)N[C@@H](C(C)C)C(=O)O[C@@H]1C (stereo partly specified) (X1-L[dE][d(aThr)][d(aIle)][ξL][dS]LL[dS]V; ester 3-C) | > 40 µM (inactive)
2 | Cc1cccc(C)c1NC(=O)CN1C(=O)CC(c2ccccc2)=Nc2ccccc21 | > 40 µM (inactive)
3 | COc1ccc(Cl)cc1NC(=O)c1nc(-c2cn(-c3ccccc3)nn2)no1 | > 40 µM (inactive)
4 | O=C(Cn1c(=O)n(-c2ccccc2)c(=O)c2ccc(C(=O)NCc3ccc4c(c3)OCO4)cc21)NCCC1=CCCCC1 | > 40 µM (inactive)
5 | O=C(CCSc1ccc(Cl)cc1)c1cccs1 | > 40 µM (inactive)
6 | Cc1cc(C)c(NC(=O)Cn2c(=O)n(CCC(=O)NCc3ccc4c(c3)OCO4)c(=O)c3sccc32)c(C)c1 | > 40 µM (inactive)
7 | COc1c(O)cc(CC(=O)O)c(C(C)=O)c1O | 4.69 µM
8 | Cc1cc(=O)[nH]c(SCC(=O)c2cc(C)n(CCC3=CCCCC3)c2C)c1C#N | > 40 µM (inactive)
9 | Cc1[nH]n2c(=O)c(Cl)c(-c3ccccc3)nc2c1-c1ccccc1 | > 40 µM (inactive)
10 | Cc1cccc(NC(=O)CSc2nc3c(cc2C#N)C(=O)CCC3)c1 | > 40 µM (inactive)
11 | Cc1ccc2[nH]c(=O)c(CN(CC3COCCO3)S(=O)(=O)c3ccc(F)cc3)cc2c1 (stereo unspecified) | > 40 µM (inactive)
12 | CCOc1ccc2c(c1)c(=O)c(C(=O)c1ccccc1)cn2CC(=O)Nc1ccc(OC)cc1 | > 40 µM (inactive)
13 | COc1ccccc1N(CC(=O)N1c2ccccc2CC1C)S(=O)(=O)c1ccc(F)cc1 (stereo unspecified) | > 40 µM (inactive)
14 | COc1ccc(C)cc1NC(=O)C1CC(=O)Nc2nc3ccccc3n21 (stereo unspecified) | > 40 µM (inactive)
15 | COc1ccc(NC(=O)Cn2cc(C(=O)c3ccc(F)cc3)c(=O)c3cc(C)ccc32)cc1 | > 40 µM (inactive)
16 | CC(C)=CCc1c2c(c3occ(-c4ccc(O)cc4)c(=O)c3c1O)C=CC(C)(C)O2 | > 40 µM (inactive)
17 | COC(=O)c1ccc2c(=O)n(CCCCCC(=O)NCCC3=CCCCC3)c(=O)[nH]c2c1 | > 40 µM (inactive)
18 | Cc1cc(=O)n(CC(=O)Nc2ccccc2C)c(Nc2ccc(F)cc2)n1 | > 40 µM (inactive)
19 | O=S1(=O)CCN(Cc2cccnc2)c2c(F)nc(N3CCOCC3)c(F)c21 | > 40 µM (inactive)
20 | Cc1ccc(CNC(=O)CCCn2c(=O)c3sccc3n(CC(=O)Nc3cc(Cl)ccc3C)c2=O)cc1 | > 40 µM (inactive)
21 | Cc1c(C(=O)OCC(=O)Nc2ccc3c(c2)OCO3)oc2ccc(Br)cc12 | > 40 µM (inactive)

Row | SMILES | IC50
22 | O=C(CCn1c(=O)c2ccccc2n(CC(=O)OCc2ccccc2)c1=O)NCc1ccc2c(c1)OCO2 | > 40 µM (inactive)
23 | CC(=O)c1cc(-c2ccc(F)cc2)n(CC(=O)Nc2cccc(C)c2C)c1C | > 40 µM (inactive)
24 | O=C(NCc1ccc(Cl)cc1)c1cc2c(s1)-c1ccccc1OC2 | > 40 µM (inactive)
25 | O=c1cc(Cc2ccccc2)nc2c(-c3ccccc3)c(COc3ccccc3)[nH]n12 | > 40 µM (inactive)
26 | CC(NC(=O)c1ccccc1)c1nc2ccccc2n1CC(=O)Nc1ccc(OC(F)(F)F)cc1 (stereo unspecified) | > 40 µM (inactive)
27 | O=C(NC1CCCC1)c1ccc(-c2ccc(S(=O)(=O)NCc3ccccc3)cc2)cc1 | > 40 µM (inactive)
28 | CC(C)Cc1nc2sc3c(SCC(=O)N4CCC(C)CC4)ncnc3c2c2c1COC(C)(C)C2 | > 40 µM (inactive)
29 | COc1ccc(-c2cc3nc([C@H](C)NC(=O)Cc4ccccc4C)nn3cn2)cc1 | > 40 µM (inactive)
30 | O=C(OC1CSc2nc3ccccc3n2C1)c1ccc([N+](=O)[O-])o1 (stereo unspecified) | 21.4 µM
31 | O=C(Nc1nc2c(ccc3ccccc32)s1)c1cccc(Br)c1 | > 40 µM (inactive)
32 | COC(=O)c1ccc(N2CCN(C(C)=O)CC2)c(NC(=O)COc2ccc([N+](=O)[O-])cc2)c1 | > 40 µM (inactive)
33 | COc1ccc(CNC(=O)C2CCCN(S(=O)(=O)Cc3ccc(Cl)cc3)C2)cc1 (stereo unspecified) | > 40 µM (inactive)
34 | O=C(c1ccc(Cl)cc1)N(c1ccccn1)C1CCCCC1 | > 40 µM (inactive)
35 | COc1c2nc3ccccc3oc-2cc(=O)c1OC | > 40 µM (inactive)
36 | O=C1C=C(O)c2c(O)cccc2C1=O | 19 µM
37 | CC(NC(=O)c1ccccc1)c1nc2ccccc2n1CC(=O)Nc1ccc2c(c1)OCO2 (stereo unspecified) | > 40 µM (inactive)
38 | Cc1nc(-c2ccc(C(=O)Nc3ccc(F)cc3)cc2)cs1 | > 40 µM (inactive)
39 | O=C(c1cnc2[nH][nH]c(=O)c2c1)c1cc(Cl)cc(Cl)c1O | 10.7 µM
40 | COc1ccccc1/C=C/C(=O)NC(Cc1ccccc1)c1nc2ccccc2[nH]1 (stereo unspecified) | > 40 µM (inactive)
41 | O=C(Cn1c(=O)c2cccn2c2ccccc21)NCc1ccc(F)cc1 | > 40 µM (inactive)
42 | CCN(c1ccc(NC(=O)COC(=O)c2cccnc2Nc2cccc(C(F)(F)F)c2)cc1)C(C)C | > 40 µM (inactive)

Row | SMILES | IC50
43 | O=C(CSc1nc2ccccc2[nH]1)Nc1ccc2c(c1)OCCO2 | > 40 µM (inactive)
44 | Cc1cc(C)c(NC(=O)Cc2sc(Nc3ccc(C)c(C)c3)nc2O)c(C)c1 | > 40 µM (inactive)
45 | CCCCCCCc1cc(OC(=O)c2c(CCCCCCC)cc(O)cc2O[C@@H]2O[C@H](CO)[C@H](O)[C@H](O)[C@H]2O)cc(O)c1C(=O)O | 9.43 µM
46 | NS(=O)(=O)c1cccc(NS(=O)(=O)c2ccc(/C=C/C(=O)OCC(=O)c3ccc(Br)cc3)cc2)c1 | > 40 µM (inactive)
47 | COc1cccc(NC(=O)C(Sc2cccc(NC(=O)c3ccccc3F)c2)c2ccccc2)c1 (stereo unspecified) | > 40 µM (inactive)
48 | Cn1c(=O)[nH]c2nncnc2c1=O | 20.7 µM
49 | Cc1ccc(Cn2c(C(=O)O)c(CNCc3ccco3)c3ccccc32)cc1 | > 40 µM (inactive)
50 | COc1cccc(Cn2cnc3c(NS(=O)(=O)c4ccc(Cl)cc4)c(C)c(C)cc32)c1 | > 40 µM (inactive)
51 | Cc1nc2c(nnn2C[C@H]2CCCN2C(=O)c2ccc(F)cc2)c(=O)[nH]1 | > 40 µM (inactive)
52 | COc1ccc(CCNC(=O)Cn2c(=O)n(-c3ccc(CC(=O)NCCc4ccccc4)cc3)c(=O)c3ccccc32)cc1OC | > 40 µM (inactive)
53 | COc1ccc(NC(=O)Cn2cc(C(=O)c3ccccc3)c(=O)c3cc(Cl)ccc32)cc1OC | > 40 µM (inactive)
54 | Cc1ccc(Nc2nc(O)c(CC(=O)Nc3cccc(Cl)c3C)s2)cc1C | > 40 µM (inactive)
55 | O=C(CC1C(=O)Nc2nc(-c3ccccc3)nn21)Nc1cccc2ccccc12 (stereo unspecified) | > 40 µM (inactive)
56 | CCc1cc(=O)oc2c(C)c(OCC(=O)NCc3ccccn3)ccc12 | > 40 µM (inactive)
57 | COC(=O)c1ccc2c(=O)n(CCCCCC(=O)NCCc3ccccc3Cl)c(=O)[nH]c2c1 | > 40 µM (inactive)
58 | CCOC(=O)CCc1c(C)c2ccc(OCC(=O)c3ccc(-c4ccccc4)cc3)c(C)c2oc1=O | > 40 µM (inactive)
59 | CNc1nc2c(c(=O)n1C)CN(C(=O)Nc1cccc3ccccc13)CC2 | > 40 µM (inactive)
60 | CCOc1ccc2c(c1)c(=O)c(C(=O)c1ccc(F)cc1)cn2CC(=O)Nc1ccccc1 | > 40 µM (inactive)
61 | Cc1cccc(OCC2=NN3C(=N)/C(=C\c4cc(C)n(-c5cccc(F)c5)c4C)C(=O)N=C3S2)c1 | > 40 µM (inactive)
